Laboratory results reported in US10479793B2, “Imidazopyridazine compounds useful as modulators of IL-12, IL-23 and/or IFN alpha responses” (BRISTOL-MYERS SQUIBB COMPANY, priority 2015, dated 2019).
Read-outs that look alike come from different tables or passages of the source. One block for each molecule: values may come before it.

Columns and labels:
[1] = target: T1, recombinantly expressed His-tagged protein corresponding to amino acids 575-869 of human Tyk2 (Homo sapiens, UniProt P29597); experiment: Probe displacement assay (scintillation proximity, tritiated probe); format: binding; conditions: His-tagged Tyk2 (575-869) 2.5 nM, 40 nM radiolabeled probe, 30 minutes at room temperature
T1 construct: made in house
Procedure: The preparation of radiolabeled probe, (R)—N-(1-(3-(8-methyl-5-(methylamino)-8H-imidazo[4,5-d]thiazolo[5,4-b]pyridin-2-yl)phenyl)ethyl)-2-([^3H]methylsulfonyl)benzamide, was performed as described below: […]

[2] = test system: IL-23 stimulated Kit225 T cells with a stably-integrated STAT-dependent luciferase reporter; experiment: Kit225 T cell assay, IL-23 stimulated STAT-dependent luciferase reporter; format: cell-based, human
Procedure: (§1) Kit225 T cells with a stably-integrated STAT-dependent luciferase reporter were plated in RPMI (GIBCO) containing 10% heat-inactivated FBS (GIBCO) and 100 U/mL PenStrep (GIBCO). The cells were then stimulated with either 20 ng/mL human recombinant IL-23 or 200 U/mL human recombinant IFNα (PBL InterferonSource) for 5-6 hours. Luciferase expression was measured using the STEADY-GLO Luciferase Assay System (PROMEGA) according to the manufacturer's instructions.

[3] = test system: IFNα stimulated Kit225 T cells with a stably-integrated STAT-dependent luciferase reporter; experiment: Kit225 T cell assay, IFNα stimulated STAT-dependent luciferase reporter; format: cell-based, human
Procedure: as §1

[4] = KIT225, 20 ng/mL human recombinant IL-23, 5-6 hours, luciferase, read-out: IL-23 Kit225 Reporter, (IC50)
[5] = KIT225, 200 U/mL human recombinant IFNα, 5-6 hours, luciferase, read-out: IFNa Kit225 Reporter, (IC50)
[6] = Homo sapiens, KIT225, read-out: IL-23 Kit225 Reporter, (IC50, uM)
[7] = Homo sapiens, KIT225, read-out: IFNa Kit225 Reporter, (IC50, uM)
[8] = Homo sapiens, KIT225, 20 ng/mL human recombinant IL-23, 5-6 hours, luciferase, read-out: IL-23 Kit225 Reporter, (IC50)
[9] = Homo sapiens, KIT225, 200 U/mL human recombinant IFNα, 5-6 hours, luciferase, read-out: IFNa Kit225 Reporter, (IC50)

T1 sequence (P29597 with tags, fused parts or gaps): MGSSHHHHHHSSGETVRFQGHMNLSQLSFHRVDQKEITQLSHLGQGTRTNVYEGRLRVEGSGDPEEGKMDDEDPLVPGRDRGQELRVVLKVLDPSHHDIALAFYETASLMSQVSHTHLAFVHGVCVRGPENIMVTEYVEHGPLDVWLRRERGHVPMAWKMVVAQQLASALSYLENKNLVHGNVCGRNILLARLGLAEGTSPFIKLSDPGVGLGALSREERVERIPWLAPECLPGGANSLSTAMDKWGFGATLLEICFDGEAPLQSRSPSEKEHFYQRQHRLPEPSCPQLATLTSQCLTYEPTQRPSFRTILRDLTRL

Compound: CNc1cc(Nc2cccnc2C(=O)NCCOC)nn2c(C(=O)NC3CC3)cnc12 [Example 108]
EC50 [1]: 7.59 nM

Compound: CNc1nc(Nc2cc(C)cc(F)c2)nn2c(C(N)=O)cnc12 [Example 73]
EC50 [1]: 7.75 nM
IC50 [2, 4]: 0.28 µM
IC50 [3, 5]: 0.14 µM

Compound: CNc1cc(Nc2cc(C)cc(F)c2)nn2c(C(=O)N3CCC3)cnc12 [Example 3]
EC50 [1]: 60 nM
IC50 [2, 6]: 2.82 µM
IC50 [3, 7]: 1.92 µM

Compound: Cc1cc(C)cc(Nc2cc(NCC3CC3)c3ncc(C(N)=O)n3n2)c1 [Example 51]
EC50 [1]: 70 nM
IC50 [2, 4]: 3.74 µM
IC50 [3, 5]: 2.9 µM

Compound: CCCNc1cc(Nc2cc(C)cc(C)c2)nn2c(C(N)=O)cnc12 [Example 54]
EC50 [1]: 30 nM
IC50 [2, 4]: 1.25 µM
IC50 [3, 5]: 1.17 µM

Compound: N#Cc1cc(Nc2cc(NC3CC3)c3ncc(C(=O)NC4CC4)n3n2)cc(C(F)(F)F)c1 [Example 33]
EC50 [1]: 190 nM
IC50 [2, 4]: 12.5 µM
IC50 [3, 5]: 12.5 µM

Compound: CNc1cc(Nc2cccc(-c3ccc(C(F)(F)F)cc3F)c2)nn2c(C(=O)NC[C@@](C)(O)CO)cnc12 [Example 113]
EC50 [1]: 7.62 nM
IC50 [2, 4]: 0.75 µM

Compound: CNc1cc(N2CCc3ccccc32)nn2c(C(=O)NCC(C)(C)O)cnc12 [Example 11]
EC50 [1]: 90 nM
IC50 [2, 4]: 2.9 µM
IC50 [3, 5]: 2.27 µM

Compound: Cc1cc(C)cc(Nc2cc(NCCN(C)C)c3ncc(C(N)=O)n3n2)c1 [Example 58]
EC50 [1]: 80 nM
IC50 [2, 6]: 1.55 µM
IC50 [3, 7]: 2.96 µM

Compound: Cc1cc(C)cc(Nc2cc(Nc3cnccn3)c3ncc(C(N)=O)n3n2)c1 [Example 63]
EC50 [1]: 280 nM
IC50 [2, 4]: 12.5 µM
IC50 [3, 5]: 12.5 µM

Compound: CNc1cc(Nc2cccnc2F)nn2c(C(=O)NC3CC3)cnc12 [Example 95]
EC50 [1]: 20 nM
IC50 [2, 8]: 0.37 µM
IC50 [3, 9]: 0.27 µM

Compound: Cc1cc(F)cc(Nc2nc(NC3CC3)c3ncc(C(N)=O)n3n2)c1 [Example 71]
EC50 [1]: 140 nM
IC50 [2, 4]: 2.97 µM
IC50 [3, 5]: 12.5 µM

Compound: CNc1cc(Nc2cccnc2-n2cccn2)nn2c(C(=O)NC3CC3)cnc12 [Example 92]
EC50 [1]: 30 nM
IC50 [2, 8]: 0.4 µM
IC50 [3, 9]: 0.21 µM

Compound: NC(=O)c1cnc2c(NC3CC3)cc(Nc3cccc(F)c3)nn12 [Example 47]
EC50 [1]: 40 nM
IC50 [2, 4]: 1.12 µM
IC50 [3, 5]: 1.13 µM

Compound: Cc1cc(C)cc(Nc2cc(NCCO)c3ncc(C(N)=O)n3n2)c1 [Example 52]
EC50 [1]: 70 nM
IC50 [2, 4]: 7.04 µM
IC50 [3, 5]: 12.8 µM

Compound: CNc1cc(Nc2c(F)c(F)cc(F)c2F)nn2c(C(=O)NCC(C)(C)O)cnc12 [Example 21]
EC50 [1]: 30 nM
IC50 [2, 4]: 0.39 µM
IC50 [3, 5]: 0.21 µM

Compound: CNc1cc(Nc2cccc(N3CCCC3=O)n2)nn2c(C(=O)NC3CC3)cnc12 [Example 88]
EC50 [1]: 8.34 nM
IC50 [2, 4]: 0.01 µM
IC50 [3, 5]: 0.02 µM

Molecules with a lower EC50 [1], results first:

EC50 [1]: 2.09 nM
IC50 [2, 8]: 0.1 µM
IC50 [3, 9]: 0.05 µM
Compound: CNc1cc(Nc2c(OC)ccc(F)c2F)nn2c(C(=O)NC3CC3)cnc12 [Example 75]

EC50 [1]: 3.24 nM
IC50 [2, 8]: 0.03 µM
IC50 [3, 9]: 0.03 µM
Compound: CNc1cc(Nc2cc(C)cc(F)c2)nn2c(C(=O)NC3CC3)cnc12 [Example 2]

EC50 [1]: 3.61 nM
IC50 [2, 8]: 0.03 µM
IC50 [3, 9]: 0.03 µM
Compound: CNc1cc(Nc2cc(F)ccc2F)nn2c(C(=O)NC3CC3)cnc12 [Example 8]

EC50 [1]: 7.25 nM
IC50 [2, 4]: 0.04 µM
IC50 [3, 5]: 0.05 µM
Compound: CNc1cc(Nc2cccnc2OC)nn2c(C(=O)NC3(C#N)CC3)cnc12 [Example 24]

EC50 [1]: 7.29 nM
IC50 [2, 8]: 0.5 µM
IC50 [3, 9]: 0.5 µM
Compound: CNc1cc(Nc2cccc(OC(F)(F)F)c2)nn2c(C(=O)NC3CCC3)cnc12 [Example 5]

EC50 [1]: 2.93 nM
IC50 [2, 4]: 0.09 µM
IC50 [3, 5]: 0.06 µM
Compound: CNc1cc(Nc2cccnc2OC)nn2c(C(=O)NCCF)cnc12 [Example 26]

EC50 [1]: 2.97 nM
IC50 [2, 8]: 0.05 µM
IC50 [3, 9]: 0.03 µM
Compound: CNc1cc(Nc2cc(F)cc(F)c2F)nn2c(C(=O)NC3CC3)cnc12 [Example 13]

EC50 [1]: 3.97 nM
IC50 [2, 8]: 0.06 µM
IC50 [3, 9]: 0.05 µM
Compound: CNc1cc(Nc2c(F)c(F)cc(F)c2F)nn2c(C(=O)NC3CC3)cnc12 [Example 20]

EC50 [1]: 3.72 nM
IC50 [2, 4]: 0.04 µM
IC50 [3, 5]: 0.01 µM
Compound: CNc1cc(Nc2cc(F)cc(F)c2F)nn2c(C(=O)NCC(C)(C)CO)cnc12 [Example 18]

EC50 [1]: 3.9 nM
IC50 [2, 4]: 0.7 µM
IC50 [3, 5]: 0.14 µM
Compound: CNc1cc(Nc2cccc(N3CCC(O)C3=O)n2)nn2c(C(=O)NC3CC3)cnc12 (stereo not drawn) [Example 90]
